Reference: EP4635565A1, “PRENYLATED TETRAHYDROQUINOLINES AND QUINOLINES WITH PPAR AGONIST ACTIVITY” (Fundación para la Investigación del Hospital Clínico de la …, priority 2024, dated 2025)

Columns and labels:
[1] = test system: Pdk4; experiment: Pdk4 mRNA expression by RT-qPCR in L929sA WT cells; format: cell-based, mouse; settings: 10 µM, 6 h
Protocol: (§1) RNA was isolated using the RNeasy Purification Kit (Qiagen) according to the manufacturer's instructions. cDNA was synthesised using a PrimeScript kit (Takara). RT-qPCR was performed using Light Cycler 480 SYBR Green I Master Mix (Roche).
(§2) Pyruvate Dehydrogenase Kinase 4 gene (Pdk4), a well-known target gene of PPARs, encodes a protein that regulates the phosphorylation and inactivation of the pyruvate dehydrogenase complex in response to physiological conditions. This response switches the energy source from glucose to fatty acids to maintain blood glucose levels to, thereby, increase lipid metabolism. Because it is a well-known target gene of PPARs, the effect of the 2- and 3-prenylated esters of tetrahydroquinolines and quinolines on a Pdk4 region reported to bind PPARα, was evaluated. The L929sA cells that were stably transfected with a PDK4-(PPRE)3-Luc+ reporter gene construct were used.

[2] = target: T1, hPPARγ (Homo sapiens, UniProt P37231); experiment: PPAR transactivation assay, human chimeric PPAR/Gal4 reporter luciferase system in Cos-7 cells (PPARγ); format: cell-based; settings: for Emax at 10 µM: COS-7, read-out: Efficacy (%) at 10 µmol/L PPARγ; for EC50: human PPARγ/Gal4, Cos-7 cells, concentration range 0.001-10 µmol/L, NA: not active
T1 sequence (P37231 238-505): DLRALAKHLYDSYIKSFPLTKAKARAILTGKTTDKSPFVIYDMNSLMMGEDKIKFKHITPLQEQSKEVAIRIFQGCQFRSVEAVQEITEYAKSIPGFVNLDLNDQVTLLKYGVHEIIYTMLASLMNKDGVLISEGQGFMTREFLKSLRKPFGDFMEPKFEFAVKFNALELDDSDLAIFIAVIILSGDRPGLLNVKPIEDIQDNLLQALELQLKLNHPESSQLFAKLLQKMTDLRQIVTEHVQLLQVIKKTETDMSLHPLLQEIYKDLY
Protocol: (§3) Transfections were stopped after 16 h by adding DMEM/10% FCS. Cells were detached with trypsin, re-seeded in 96-well plates for 6 h in DMEM/10% FCS, and incubated for 24 h in DMEM/0.2% FCS with increasing concentrations of the test compounds or vehicle (DMSO, 0.1% final concentration). At the end of the experiment, cells were washed once with ice-cold PBS, lysed, and luciferase and β-galactosidase activities were measured. Luciferase activity was normalised to that of the internal control, β-galactosidase. All transfection experiments were performed at least five times.
(§4) EC50 values against human PPARα/Gal4, PPARβ/δ/Gal4 and PPARγ/Gal4 receptors.

[3] = test system: THP-1 cells; experiment: Cytotoxicity, Annexin V-FITC/PI dual staining by flow cytometry; format: cell-based, human; settings: 30 and 100 µM, 24 h
Protocol: The cytotoxicity of tetrahydroquinoline and quinoline esters 5a, 5b, 8a and 8b was evaluated at 30 and 100 µM by flow cytometry to assess cell survival using an Annexin V-FITC/PI dual staining assay. THP-1 cells (3 × 10^4 cells per well) were seeded in 24-well plates and allowed to grow overnight. The medium was then replaced and incubations with the different compounds or DMSO were performed during 24 h. Then, all cells were processed with the Annexin V-assay kit (ANXCFK7, Immunostep, Salamanca, Spain) according to the manufacturer's instruction. A Becton Dickinson LSR Fortessa cytometer (BD Biosciences, Franklin Lakes, NJ, USA) was used for samples, and cell analysis were performed using FACSDiva X20 software.
The potential cytotoxic effects of the compounds of the invention 5a, 5b, 8a, and 8b on the human macrophage cell line THP-1 were evaluated by flow cytometry to assess cell survival using an Annexin V-FITC/PI dual staining assay. The THP-1 cells were treated with concentrations of 30 and 100 µM for 24 h.

[4] = test system: NF-κB-IL8P-Luc+; experiment: NF-κB-IL8P transactivation assay (TNFα-stimulated L929sA cells); format: cell-based, mouse; settings: 10 µM, 1 h before TNF (2000 IU/ml), total induction time 6 h; compared to GW7647
Protocol: L929sA mouse fibroblasts were stably transfected using the calcium phosphate precipitation protocol, as described previously with p1481.IL8P-Luc+ plasmid construct. The indicated induction was performed at least in triplicates. All conditions were solvent-controlled. Subsequently, the cells were washed with PBS and lysed using TROPIX lysis buffer. Cellular luciferase levels were normalised to those of β-galactosidase (TROPIX, Bedford, MA, USA).
(§5) PPARs play crucial roles in controlling inflammatory responses. NF-κB is a transcription factor that plays a pivotal role in the expression of multiple genes involved in the immune and inflammatory responses. To study the potential anti-inflammatory effects of the tetrahydroquinolines and quinolines of the invention, the NF-κB-dependent physiological human IL-8 promoter construct, p1481.IL8P-Luc+, which is stably integrated into L929sA cells, was tested. After transfection, cells were treated at 10 µM with 5a, 5b, 8a, or 8b prior to TNFa stimulation. […] Given the significant decrease in NF-κB-IL8P-Luc+ reporter gene activity observed after treatment with the 2- or 3-prenylated tetrahydroquinolines 5a and 5b and the 3-prenylated quinoline 8b, their potential anti-inflammatory effects at the transcriptional level for other inflammatory mediators was evaluated. To achieve this, the L929sA WT cells were treated with 5a, 5b and 8b at 10 µM for 1 h, followed by TNFa stimulation for a total induction time of 6 h. The expression of inflammatory genes was evaluated by RT-qPCR.

[5] = target: T2, hPPARα (Homo sapiens, UniProt Q07869); experiment: PPAR transactivation assay, human chimeric PPAR/Gal4 reporter luciferase system in Cos-7 cells (PPARα); format: cell-based; settings: for Emax: COS-7, read-out: efficiencies times higher than the prior art compound WY-14,643; for Emax at 10 µM: COS-7, read-out: Efficacy (%) at 10 µmol/L PPARα
T2 sequence (Q07869 167-468): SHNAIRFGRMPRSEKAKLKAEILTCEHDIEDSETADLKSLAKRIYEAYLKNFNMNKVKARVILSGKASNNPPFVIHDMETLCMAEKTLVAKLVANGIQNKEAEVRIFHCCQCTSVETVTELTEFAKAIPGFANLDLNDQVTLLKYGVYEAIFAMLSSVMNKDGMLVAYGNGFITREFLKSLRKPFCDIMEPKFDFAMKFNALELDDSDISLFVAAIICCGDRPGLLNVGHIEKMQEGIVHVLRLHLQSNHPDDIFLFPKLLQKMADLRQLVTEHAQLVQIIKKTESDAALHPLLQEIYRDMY
Protocol: as §3, §4

[6] = test system: PDK4-(PPRE)3-Luc+; experiment: Pdk4 transactivation assay (PDK4-(PPRE)3-Luc+ reporter in L929sA cells); format: cell-based, mouse; settings: 10 µM, 6 h, L929sA cells; compared to GW7647 at 1 µM
Protocol: Transfection of L929sA cells stably expressing reporter genes was performed using the calcium phosphate precipitation protocol according to standard procedures with a 10-fold excess of the plasmid of interest in a pGL3-basic vector containing Luc+, a modified firefly luciferase gene (Promega Biotec, Madison, Wis,) USA. USA). The Pdk4 reporter was created using an enhancer site linked to the Pdk4 promoter containing three PPRE extracted from mouse liver genomic DNA. The aforementioned plasmid construct was then introduced into a pMet7 backbone, which had previously been cloned with a luciferase gene site, using Xhol and Sacl cut sites. The resulting construct was subjected to geneticin (neomycin) antibiotic selection to isolate individual clones. A stable cell line, designated Pdk4-Luc+, was subsequently established in L929sA cells, which also contained a constitutively expressed galactosidase reporter and a neomycin selection cassette.
as §2

[7] = test system: hPPARα, hPPARβ/δ, and hPPARγ; experiment: PPAR transactivation assays, agonist profile over the three isoforms; settings: always with partial activity on the PPARγ isoform
[8] = test system: TNFα-induced proinflammatory genes; experiment: TNFα-induced pro-inflammatory gene expression by RT-qPCR in L929sA WT cells; format: cell-based, mouse; settings: 10 µM for 1 h, then TNFa, total induction time 6 h
Protocol: as §1, §5

[9] = target: T3, hPPARβ/δ (Homo sapiens, UniProt Q03181); experiment: PPAR transactivation assay, human chimeric PPAR/Gal4 reporter luciferase system in Cos-7 cells (PPARβ/δ); format: cell-based; settings: for Emax at 10 µM: COS-7, read-out: Efficacy (%) at 10 µmol/L PPARβ/δ; for EC50: human PPARβ/δ/Gal4, Cos-7 cells, concentration range 0.001-10 µmol/L, NA: not active
T3 sequence (Q03181 171-441): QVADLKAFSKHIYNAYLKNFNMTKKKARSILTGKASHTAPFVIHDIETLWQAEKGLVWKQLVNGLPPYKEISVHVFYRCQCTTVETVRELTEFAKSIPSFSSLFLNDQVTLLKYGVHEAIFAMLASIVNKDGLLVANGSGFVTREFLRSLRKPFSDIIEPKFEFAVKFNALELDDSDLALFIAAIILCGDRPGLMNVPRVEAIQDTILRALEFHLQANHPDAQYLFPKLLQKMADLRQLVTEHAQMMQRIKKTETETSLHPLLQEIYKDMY
Protocol: as §3, §4

Row | SMILES | expression of Pdk4 mRNA [1] | Emax at 10 µM [2] [%] | EC50 [2] [nM] | cytotoxic effects (cell survival) [3] | transactivation of the TNFα-dependent NF-κB-driven reporter [4] | EC50 [5] [nM] | Emax [5] [%] | Emax at 10 µM [5] [%] | transactivation of the PDK4-Luc+ indicator [6] | PPAR agonist activity profile [7] | transcription of TNFα-induced proinflammatory genes [8] | Emax at 10 µM [9] [%] | EC50 [9] [nM]
1 | CCOC(=O)CC/C(C)=C/CC1Cc2cc(OCc3ccccc3)ccc2N(C)C1C (stereo not shown) [Compound 5b, Ethyl (E)-6-(6-(benzyloxy)-1,2-dimethyl-1,2,3,4-tetrahydroquinolin-3-yl)-4-methylhex-4-enoate] | increased expression levels of Pdk4 | 15 | 16900 | No cytotoxic effects were observed | can repress the transactivation of the TNFα-dependent NF-κB-driven reporter | 1900 | 300 to 400 | 328 | increased the transactivation of the PDK4-Luc+ indicator | selective PPARα | downregulated the transcription of TNFα-induced proinflammatory genes such as Cc/5 and II-6 | 7 | 5800
2 | CCOC(=O)CC/C(C)=C/CCc1ccc2cc(OCc3ccccc3)ccc2n1 [Compound 8a, Ethyl (E)-7-(6-(benzyloxy)quinolin-2-yl)-4-methylhept-4-enoate] | – | – | – | No cytotoxic effects were observed | – | 2800 | – | 210 | increased the transactivation of the PDK4-Luc+ indicator | – | – | 32 | 2000
3 | C/C(=C\Cc1cc2cc(OCc3ccccc3)ccc2nc1C)CCC(=O)O [Compound 9b, (E)-6-(6-(benzyloxy)-2-methylquinolin-3-yl)-4-methylhex-4-enoic acid] | – | 25 | 900 | – | – | 1800 | – | 218 | – | dual PPARα/γ agonist activity | – | 2 | 5100
4 | CCOC(=O)CC/C(C)=C/Cc1cc2cc(OCc3ccccc3)ccc2nc1C [Compound 8b, Ethyl (E)-6-(6-(benzyloxy)-2-methylquinolin-3-yl)-4-methylhex-4-enoate] | – | 37 | 1000 | No cytotoxic effects were observed | can repress the transactivation of the TNFα-dependent NF-κB-driven reporter | 2200 | – | 221 | – | dual PPARα/γ agonist activity | downregulated the transcription of TNFα-induced proinflammatory genes such as Cc/5 and II-6 | 2 | 7900
5 | C/C(=C\CC1Cc2cc(OCc3ccccc3)ccc2N(C)C1C)CCC(=O)O (stereo not shown) [Compound 6b, (E)-6-(6-(benzyloxy)-1,2-dimethyl-1,2,3,4-tetrahydroquinolin-3-yl)-4-methylhex-4-enoic acid] | – | 24 | 1700 | – | – | 1300 | 300 to 400 | 461 | – | selective PPARα | – | 35 | 5800
6 | C/C(=C\CCC1CCc2cc(OCc3ccccc3)ccc2N1C)CCC(=O)O (stereo not shown) [Compound 6a, (E)-7-(6-(benzyloxy)-1-methyl-1,2,3,4-tetrahydroquinolin-2-yl)-4-methylhept-4-enoic acid] | – | 36 | 3900 | – | – | 2900 | – | 144 | – | pan-PPAR agonist activity | – | 73 | 4600
7 | C/C(=C\CCc1ccc2cc(OCc3ccccc3)ccc2n1)CCC(=O)O [Compound 9a, (E)-7-(6-(benzyloxy)quinolin-2-yl)-4-methylhept-4-enoic acid] | – | 39 | 3300 | – | – | 3600 | – | 104 | – | dual PPARα/γ agonist activity | – | 14 | 1100
